Laboratory results reported in patent publication US11850277B2, “Treatment of lower urinary tract epithelium with glucagon like peptide 2” (URIGEN N.A., priority 2017, dated 2023).

How the values were obtained:
[1] = test system: non-tumorigenic primary human bladder epithelial cells (ATCC-PCS-420-010); experiment: BrdU cell proliferation assay (BrdU incorporation into DNA); assay type: cell-based; conditions: cells starved 48 hours in low nutrient (0.5%) medium; for DNA synthesis as measured by BrdU incorporation: BrdU added concurrently
Experimental: FIG. 1 presents a histogram plot depicting results from a BrdU cell proliferation assay. Primary human bladder epithelial cells were nutrient starved as indicated and treated with GLP-2 for 24 hours at the indicated concentrations
FIG. 2 presents a histogram plot depicting results from a BrdU cell proliferation assay. Primary human bladder epithelial cells were nutrient starved as indicated and treated with GLP-2 for 48 hours at the indicated concentrations.
URG-801/GLP-2 mediated cell proliferation was detected by assaying BrdU incorporation into DNA using non-tumorigenic primary human bladder epithelial cells. An exemplary non-tumorigenic primary human bladder epithelial cell line is ATCC-PCS-420-010, which may be purchased from the American Type Culture Collection (ATCC) repository. Briefly, ATCC-PCS-420-010 cells were starved for 48 hours in low nutrient (0.5%) medium and then GLP-2 was added to the culture medium at the indicated concentrations and the cells were cultured for an additional 24 hours in the presence of GLP-2. As indicated in the timeline presented in FIG. 1, bromodeoxyuridine (BrdU) was added concurrently with the GLP-2.
To investigate further parameters affecting GLP-2 induced bladder epithelial cell proliferation, the duration of culturing in the presence of GLP-2 was extended. In this experimental protocol, ATCC-PCS-420-010 cells were starved for 48 hours in low nutrient (0.5%) medium and then GLP-2 was added to the culture medium at the indicated concentrations and the cells were cultured for ab additional 48 hours in the presence of GLP-2. As indicated in the timeline presented in FIG. 2, BrdU was added concurrently with the GLP-2.

GLP-2R = biological target: T1, GLP-2R (Rattus norvegicus, UniProt Q9Z0W0); conditions: iv injected radiolabeled GLP-2, autoradiography; cited from earlier work
T1 construct: host or cells: Tissues of the living animal (kidneys, liver, gastrointestinal tract and others), endogenous receptor
T1 sequence (Q9Z0W0 1-550): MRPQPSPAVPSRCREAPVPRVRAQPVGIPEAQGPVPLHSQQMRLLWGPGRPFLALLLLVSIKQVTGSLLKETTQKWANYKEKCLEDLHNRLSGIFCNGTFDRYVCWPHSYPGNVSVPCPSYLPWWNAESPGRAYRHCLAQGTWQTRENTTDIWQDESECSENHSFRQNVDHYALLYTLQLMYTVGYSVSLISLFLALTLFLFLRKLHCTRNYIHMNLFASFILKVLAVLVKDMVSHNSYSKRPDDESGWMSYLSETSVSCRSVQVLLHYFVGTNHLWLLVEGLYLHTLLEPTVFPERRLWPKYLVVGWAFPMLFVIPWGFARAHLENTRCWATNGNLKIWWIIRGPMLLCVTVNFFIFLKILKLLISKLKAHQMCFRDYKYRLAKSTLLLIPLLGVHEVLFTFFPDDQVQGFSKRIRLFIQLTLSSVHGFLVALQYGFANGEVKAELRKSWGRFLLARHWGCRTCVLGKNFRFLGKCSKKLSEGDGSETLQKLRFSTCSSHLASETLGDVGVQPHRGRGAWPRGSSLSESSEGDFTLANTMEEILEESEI

intestinal epithelium = conditions: normal and treated rat inflammatory bowel disease models and ischemic reperfusion injured mice; cited from earlier work
[2] = in vivo; cited from earlier work
[3] = phase IIB study; cited from earlier work
[4] = then cultured 48 hours with GLP-2, FIG. 2

Row | Substance | DNA synthesis as measured by BrdU incorporation ([1]; then cultured 24 hours with GLP-2, FIG. 1) | DNA synthesis as measured by BrdU incorporation [1, 4] | GLP-2 concentration at which BrdU incorporation peaked (bell shaped curve) [1, 4] [µM] | binding to submandibular gland, lung, brain, heart, adipose tissue, skeletal muscle, uterus, ovary, urinary bladder, adrenal gland, thyroid gland, or skin (GLP-2R) | tissues to which radiolabeled GLP-2 binds (GLP-2R) | effect on intestinal/mucosal mass and damage (intestinal epithelium) | half life in circulation [2] [min] | efficacy in chemotherapy-induced diarrhea [3]
1 | HADGSFSDEMNTILDNLAARDFINWLIQTKITD [GLP-2] | dose dependent increase in DNA synthesis | dose dependent increase in DNA synthesis | 0.1 | does not bind | binds predominantly to the kidneys, liver, and gastrointestinal tract | enhanced intestinal/mucosal mass and attenuated damage | 3 to 7 | 
2 | elsiglutide |  |  |  |  |  |  |  | failed to reach statistical significance
